Patent publication US10035808B1, “Isatin peroxo compounds with antibacterial activities and a method of preparing the same” (SHAANXI UNIVERSITY OF SCIENCE AND TECHNOLOGY, priority 2018, dated 2018)

Experiments:
[1] = tested on: Enteropathogenic Escherichia coli (EPEC); assay: Bacteriostatic circle test, EPEC; assay type: cell-based; settings: bacteriostatic circle method; strain EPEC; DMSO negative control
Description: (§1) The compounds of the present invention have been tested for antibacterial activity, and a bacteriostatic circle method was used to determine the antibacterial activity.
(§2) Test strains and medium: Enteropathogenic Escherichia coli (EPEC), Enterotoxigenic Escherichia coli (ETEC), Enteroinvasive Escherichia coli (EIEC), Enterohemorrhagic Escherichia coli (EHEC); beef peptone medium.
(§3) Preparation of test strains: (1) test strains were placed in culture medium in test tubes in an incubator (bacteria: 37° C., 24 hours; fungi: 28° C., 48 hours), and stored at 0-4° C.; (2) the test strains were inoculated with a small loop in test tubes containing 9 mL sterile water, mixing well to make suspensions, and adjusting the concentration to 10^6-10^7 cfu·mL^−1. The suspensions were used for bacteriostatic circle test.
(§4) Antibacterial activity determination: solvent dimethyl sulfoxide (DMSO) was used as a negative control, the sizes of antibacterial ring diameters indicated the strength of the antibacterial activities.

[2] = tested on: Enterotoxigenic Escherichia coli (ETEC); assay: Bacteriostatic circle test, ETEC; assay type: cell-based; settings: bacteriostatic circle method; strain ETEC; DMSO negative control
Description: as §1, §2, §3, §4

[3] = tested on: Enteroinvasive Escherichia coli (EIEC); assay: Bacteriostatic circle test, EIEC; assay type: cell-based; settings: bacteriostatic circle method; strain EIEC; DMSO negative control
Description: as §1, §2, §3, §4

[4] = tested on: Enterohemorrhagic Escherichia coli (EHEC); assay: Bacteriostatic circle test, EHEC; assay type: cell-based; settings: bacteriostatic circle method; strain EHEC; DMSO negative control
Description: as §1, §2, §3, §4

[5] = tested on: all the four tested bacteria (EPEC, ETEC, EIEC, EHEC); assay: Bacteriostatic circle test, summary over all four tested bacteria; assay type: cell-based, Escherichia coli
Description: as §1, §2, §3, §4

Row | SMILES | Circle Size [1] [mm] | Circle Size [2] [mm] | Circle Size [3] [mm] | Circle Size [4] [mm] | antibacterial activities (result in words) [5]
1 | CC(=O)C1=C(C)OOc2[nH]c3c(F)cccc3c21 [Compound 9, 1-(8-fluoro-3-methyl-9H-[1,2]dioxino[3,4-b]indol-4-yl)ethanone] | 15 | 15.5 | 14 | 14.5 | –
2 | Cc1ccc2[nH]c3c(c2c1)C(C(=O)c1ccccc1)=C(c1ccccc1)OO3 [Compound 6, (6-methyl-3-phenyl-9H-[1,2]dioxino[3,4-b]indol-4-yl)(phenyl)methanone] | 15 | 15.5 | 16 | 16 | –
3 | O=C(C1=C(c2ccccc2)OOc2[nH]c3ccccc3c21)c1ccccc1 [Compound 4, phenyl(3-phenyl-9H-[1,2]dioxino[3,4-b]indol-4-yl)methanone] | 12 | 11 | 11.5 | 12.5 | –
4 | O=C(C1=C(c2ccccc2)OOc2[nH]c3c(F)cccc3c21)c1ccccc1 [Compound 12, (8-fluoro-3-phenyl-9H-[1,2]dioxino[3,4-b]indol-4-yl)(phenyl)methanon] | 14 | – | 14.5 | 15 | –
5 | CC(=O)C1=C(C)OOc2[nH]c3ccc(F)cc3c21 [Compound 7, 1-(6-fluoro-3-methyl-9H-[1,2]dioxino[3,4-b]indol-4-yl)ethanone] | 17 | 17.5 | 16.5 | 17 | –
6 | O=C(C1=C(c2ccccc2)OOc2[nH]c3cc(Cl)ccc3c21)c1ccccc1 [Compound 11, (7-chloro-3-phenyl-9H-[1,2]dioxino[3,4-b]indol-4-yl)(phenyl)methanone] | 12 | 12.5 | 11.5 | 11.5 | –
7 | CC(=O)C1=C(C)OOc2[nH]c3ccc(Cl)cc3c21 [Compound 2, 1-(6-chloro-3-methyl-9H-[1,2]dioxino[3,4-b]indol-4-yl)ethanone] | 15 | 15.5 | 17 | 16.5 | good antibacterial activities
8 | CC(=O)C1=C(C)OOc2[nH]c3ccccc3c21 [Compound 1, 1-(3-methyl-9H-[1,2]dioxino[3,4-b]indol-4-yl)ethanone] | 20 | 19 | 21 | 23 | good antibacterial activities
9 | CC(=O)C1=C(C)OOc2[nH]c3cc(Cl)ccc3c21 [Compound 8, 1-(7-chloro-3-methyl-9H-[1,2]dioxino[3,4-b]indol-4-yl)ethanone] | 13 | 14 | 13.5 | 13 | –
10 | CC(=O)C1=C(C)OOc2[nH]c3ccc(C)cc3c21 [Compound 3, 1-(3,6-dimethyl-9H-[1,2]dioxino[3,4-b]indol-4-yl)ethanone] | 17.5 | 18 | 17 | 17 | good antibacterial activities
11 | O=C(C1=C(c2ccccc2)OOc2[nH]c3ccc(Cl)cc3c21)c1ccccc1 [Compound 5, (6-chloro-3-phenyl-9H-[1,2]dioxino[3,4-b]indol-4-yl)(phenyl)methanone] | 13 | 13.5 | 14 | 14.5 | –
12 | O=C(C1=C(c2ccccc2)OOc2[nH]c3ccc(F)cc3c21)c1ccccc1 [Compound 10, (6-fluoro-3-phenyl-9H-[1,2]dioxino[3,4-b]indol-4-yl)(phenyl)methanone] | 10 | 11 | 11.5 | 10.5 | –
